Measured values: PubChem BioAssay (NCI)
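Compound exposure: 48 hours, 5 concentrations, 96-well plates. At the TGI there is no net growth.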

How the values were obtained:
Test in all cases: inhibition of tumour cell growth, NCI panel, 48 h
SF-539 CNS = test system: SF-539 CNS
SF-295 CNS = test system: SF-295 CNS
SR leukemia = test system: SR leukemia
BT-549 breast = test system: BT-549 breast
IGROV1 ovarian = test system: IGROV1 ovarian
RXF 393 renal = test system: RXF 393 renal
OVCAR-4 ovarian = test system: OVCAR-4 ovarian
SN12C renal = test system: SN12C renal
A498 renal = test system: A498 renal
HCT-15 colon = test system: HCT-15 colon
DU-145 prostate = test system: DU-145 prostate
COLO 205 colon = test system: COLO 205 colon
HCT-116 colon = test system: HCT-116 colon
SK-MEL-2 melanoma = test system: SK-MEL-2 melanoma
CCRF-CEM leukemia = test system: CCRF-CEM leukemia
EKVX NSCLC = test system: EKVX NSCLC
A549 NSCLC = test system: A549 NSCLC
OVCAR-8 ovarian = test system: OVCAR-8 ovarian
KM12 colon = test system: KM12 colon
SW-620 colon = test system: SW-620 colon
U251 CNS = test system: U251 CNS
HCC-2998 colon = test system: HCC-2998 colon
NCI-H23 lung = test system: NCI-H23 lung
SK-MEL-28 melanoma = test system: SK-MEL-28 melanoma
UO-31 renal = test system: UO-31 renal
TK-10 renal = test system: TK-10 renal
OVCAR-3 ovarian = test system: OVCAR-3 ovarian
MALME-3M melanoma = test system: MALME-3M melanoma
RPMI-8226 leukemia = test system: RPMI-8226 leukemia
LOX IMVI melanoma = test system: LOX IMVI melanoma
K-562 leukemia = test system: K-562 leukemia
786-0 renal = test system: 786-0 renal
ACHN renal = test system: ACHN renal
MDA-MB-435 = test system: MDA-MB-435
HS 578T breast = test system: HS 578T breast
NCI-H522 lung = test system: NCI-H522 lung
HOP-62 NSCLC = test system: HOP-62 NSCLC
MCF7 breast = test system: MCF7 breast
CAKI-1 renal = test system: CAKI-1 renal
SNB-19 CNS = test system: SNB-19 CNS
NCI/ADR-RES ovarian = test system: NCI/ADR-RES ovarian
MDA-N = test system: MDA-N
NCI-H226 lung = test system: NCI-H226 lung
T-47D breast = test system: T-47D breast
M14 melanoma = test system: M14 melanoma
SK-MEL-5 melanoma = test system: SK-MEL-5 melanoma
UACC-257 melanoma = test system: UACC-257 melanoma
HOP-92 NSCLC = test system: HOP-92 NSCLC
PC-3 prostate = test system: PC-3 prostate
UACC-62 melanoma = test system: UACC-62 melanoma
MDA-MB-231 breast = test system: MDA-MB-231 breast
SF-268 CNS = test system: SF-268 CNS
OVCAR-5 ovarian = test system: OVCAR-5 ovarian
SNB-75 CNS = test system: SNB-75 CNS
HL-60(TB) leukemia = test system: HL-60(TB) leukemia
MOLT-4 leukemia = test system: MOLT-4 leukemia
NCI-H460 lung = test system: NCI-H460 lung
HT29 colon = test system: HT29 colon
SK-OV-3 ovarian = test system: SK-OV-3 ovarian

Measured: TGI

c1ccc(COc2ncccc2C2SCCCS2)cc1
not listed: SNB-75 CNS | HL-60(TB) leukemia | MOLT-4 leukemia | NCI-H460 lung | HT29 colon | SK-OV-3 ovarian
> 100 µM: all other assays above

COC(=O)c1cc2c3c(c(C(C)=O)c(OC)c2[nH]1)NCC3
not listed: OVCAR-4 ovarian | A549 NSCLC | HCC-2998 colon | SK-MEL-28 melanoma | NCI-H522 lung | HOP-92 NSCLC
> 50 µM: all other assays above
